Experimental data taken from US7687079B2, “Methods of treating ileus” (priority 2002, dated 2010).

Key:
[1] = system: rats that underwent small bowel transplantation; experiment: intestinal transit of orally fed fluorescein-labeled dextran after SITx; format: in vivo, rat; conditions: for distribution of fluorescent label along the gastrointestinal tract: 2 hours after oral feeding
Method: To determine whether CO is protective against ileus associated with small bowel transplantation, orthotopic SITx was performed in syngenic Lewis rats. SITx with caval drainage was performed using a previously described procedure. […] The graft was perfused via the aortic segment with 5 ml chilled Ringer's lactate solution, and the intestinal lumen was irrigated with 20 ml of cold saline solution containing 0.5% neomycin-sulfate (Sigma, St. Louis, Mo.). End-to-side anastomoses between the graft aorta and the recipient infrarenal aorta, and between the graft portal vein and recipient vena cava, were performed with 10-0 Novafil™ suture. The cold ischemic time was 1 hour. The entire recipient intestine was removed and the enteric continuity was restored by proximal and distal end-to-end intestinal anastomoses. Recipient animals were given 20 mg/day prophylactic cefamandole nafate for 3 postoperative days. Transplanted recipients were given water 3 hours after surgery, and were fed 24 hours after surgery.
Four groups of animals were examined in this study, two of which received a SITx. Group 1 consisted of unoperated normal rats. Group 2 animals were exposed to CO with no surgery. In Group 3, syngeneic SITx were performed and the recipients kept in room air. Group 4 consisted of SITx recipients that were placed in the CO chamber for 1 hour before surgery and then re-exposed to CO immediately following surgery until sacrificed. In both Groups 3 and 4, normal LEW rats served as donors.
The animals were exposed to CO at a concentration of 250 ppm. Briefly, 1% CO in air was mixed with air (21% oxygen) in a stainless steel mixing cylinder and then directed into a 3.70 ft^3 glass exposure chamber at a flow rate of 12 L/min. A CO analyzer (Interscan, Chatsworth, Calif.) was used to measure CO levels continuously in the chamber. CO concentrations were maintained at 250 ppm at all times. The animals were supplied food and water during the exposures.
Intestinal transit was measured in controls and manipulated animals 48 hours postoperatively by evaluating the intestinal distribution of fluorescein-labeled dextran (Molecular Probes). Animals were lightly sedated with inhaled isofluran and fed orally with labeled dextran (200 μl of 6 mg/ml in saline). Two hours after administration, the animal was sacrificed and the entire bowel from stomach to distal colon was collected. […] After pelleting the intestinal tissue and chyme, aliquots of the supernatant were read in duplicate on a plate reader (CytoFluor II; excitation wavelength 530 nm and emission 590 nm) for quantification of the fluorescent signal in each bowel segment. […] Intestinal transit was determined for statistical analysis by calculating the geometric center (GC).

IL-6 protein = IL-6 protein release from isolated muscularis (ELISA); format: in vivo, mouse
Method: Protein and Nitric Oxide Determinations. The small bowel of control and mice subjected to intestinal manipulation was removed under sterile conditions, 4 or 24 hours post-operatively, leaving the colon in situ. The small intestine was transferred to a beaker containing chilled Hanks balanced salt solution (Sigma, St. Louis, Mo.) with 200 U/ml penicillin G and 200 μg/ml streptomycin (HBSS), the lumen flushed, and the tissue transferred to a second beaker of HBSS. The muscularis was harvested as described above for real time RT-PCR. Tissues were maintained under sterile conditions at 3 to 5° C. throughout the harvesting procedure. Isolated muscularis was blotted onto sterile gauze, and the wet weight determined to obtain aliquots of 40 to 60 mg. […]
After the incubation period, the muscle tissue was pelleted, and aliquots of culture medium were frozen in liquid nitrogen and stored at −80° C. The levels of IL-6, IL-1β, PGE2, and IL-10 proteins secreted into the culture medium were determined using commercially available ELISA kits (R&D Systems, Minneapolis, Minn.) according to the manufacturer's instructions. […] Nitrate/nitrate levels were measured 24 hrs postoperatively using commercially available test kit (Oxford Biomedical Research, Oxford, Mich.) and quantified according to the manufacturer's directions. […]

circular muscle strip = experiment: Example 3 circular muscle strip contractions in response to bethanechol after IM; format: in vivo, mouse; conditions: IM+CO mice (250 and 500 ppm), bethanechol 100 μM, 24 hours
Method: Ileus was induced in mice by gentle manipulation of the small intestine. An incision was made to expose the abdominal cavity of the mouse, and bowel manipulation was performed by gentle poking and prodding of the small intestine (see, e.g., Schwarz et al., Gastroenterology 121(6):1354-1357 (2001)). The incision was subsequently closed, and analyses were performed 24 hours later. Mice were exposed to CO by inhalation (250 and 500 ppm) for 1 hour immediately prior to intestinal manipulation and during the entire 24-hour recovery period. Intestinal contractility was assessed in vitro by measuring circular muscle strip contractions in response to bethanechol (0.3-300 μM) and in vivo by determining intestinal transit from the distribution of orally-fed, fluorescein-labeled dextran and calculating geometric center as described in Example 1 above. HO-1 and IL-10 mRNA expression were determined by SYBR green real time RT-PCR from extracts of muscularis extemae, as described in Example 1 above. Release of nitric oxide (NO), a potent inhibitor of smooth muscle contractility, was estimated by measuring serum total nitrite, also described in Example 1 above.

For [C-]#[O+] [CO, carbon monoxide], the intestinal transit ([1]; SITx + CO, Table 2) was “normal”, the “intestinal transit (Geometric Center)” value ([1]; SITx rats, inhaled CO 250 ppm, 48 hours postoperatively) was “significantly improved” and the “distribution of fluorescent label along the gastrointestinal tract” value ([1]; transplanted animals treated with CO) was “small bowel segments 6, 7 and 8”. For the same compound, the “distribution of fluorescent label along the gastrointestinal tract” value ([1]; unoperated control rats treated with CO) was “small bowel segments 9 and 10, and in the cecum”, the IL-6 protein release (IL-6 protein; IM + CO vs IM, 24 hr after surgery) was “significantly attenuated” and the IL-6 protein release (IL-6 protein; IM mice treated with CO, 24 hr postoperatively) was 2000 pg/mL. For the same compound, the peak contractile force (circular muscle strip) was 1.9±0.5 g/s/mm^2.
